The record followed here is PubChem BioAssay AID504505 (The Scripps Research Institute Molecular Screening Center, 2011).

Broadly, the inhibition is the share of the control response that was lost under treatment.

This test deals with Abhydrolase domain-containing protein 11 (ABHD11), mouse. Briefly: cellular mouse ABHD11 activity inhibitors – cell-based, gel-based fluorescent ABPP, selectivity assay for LYPLA1 inhibitor project, late-stage follow-up (AID 504505). The note with it: mouse cells, ABHD11 labeling, at 0.03 µM, active compounds read high.

For the compound `CCC1CCCCN1C(=O)n1ncc(C(O)(c2ccccc2)c2ccccc2)n1` (stereo unspecified), the inhibition was 100%.
